Where two headings read alike, the source gives them in different places.
Experiments:
NDM-1 = NDM-1 (Klebsiella pneumoniae, UniProt C7C422); assay: biochemical; assay type: biochemical; settings: read-out: NDM-1 IC50
IMP-1 = IMP-1 (Serratia marcescens, UniProt P52699); assay: biochemical; assay type: biochemical
VIM-1 = VIM-1 (Pseudomonas aeruginosa (strain ATCC 15692 / DSM 22644 / CIP 104116 / JCM 14847 / LMG 12228 / 1C / PRS 101 / PAO1), UniProt A0A0F7KYQ8); assay: Enzyme activity: determination of IC50, fluorescence assay with CCF2-FA substrate (VIM-1); assay type: biochemical
[1] = tested on: Escherichia coli expressing NDM-1 (CLB30016); assay: Antibiotic potentiation activity: synergistic concentration (MITC95) with imipenem, OD600 growth; assay type: cell-based; settings: for Escherichia coli expressing NDM-1 (CLB 30016) MITC95: concentration giving 95% inhibition of bacterial growth
Summary of the method: (§1)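 In 1.1× CAMHB, clinical isolates from overnight plates were challenged with test compound alongside imipenem at an assay concentration of 4 μg/ml, sometimes 1 μg/ml. Plates sat covered at 35 °C for 22–24 h prior to spectrophotometric reading.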

[2] = tested on: Klebsiella pneumoniae expressing VIM-1 (IHMA599644); assay: as above; assay type: cell-based; settings: for Klebsiella pneumoniae expressing VIM-1 (IHMA 599644) MITC95: concentration giving 95% inhibition of bacterial growth
Summary of the method: as §1

[3] = tested on: Serratia marcescens expressing IMP-1 (CL5741); assay: as above; assay type: cell-based; settings: for Serratia marcescens expressing IMP-1 (CL5741) MITC95: concentration giving 95% inhibition of bacterial growth
Summary of the method: as §1

[4] = NDM-1 enzyme, CCF2-FA substrate
[5] = IMP-1 enzyme, CCF2-FA substrate, read-out: IMP-1 IC50
[6] = VIM-1 enzyme, CCF2-FA substrate, read-out: VIM-1 IC50
[7] = (CLB30016, NDM-1), 95% growth inhibition
[8] = Klebsiella pneumoniae IHMA599644 (VIM-1), 95% growth inhibition
[9] = Serratia marcescens CL5741 (IMP-1), 95% growth inhibition
[10] = NDM-1 enzyme, CCF2-FA fluorescence assay
[11] = IMP-1 enzyme, CCF2-FA fluorescence assay, read-out: IMP-1 IC50
[12] = VIM-1 enzyme, CCF2-FA fluorescence assay, read-out: VIM-1 IC50
[13] = Escherichia coli expressing NDM-1 (CLB30016), 95% growth inhibition
[14] = Klebsiella pneumoniae expressing VIM-1 (IHMA599644), 95% growth inhibition
[15] = Serratia marcescens expressing IMP-1 (CL5741), 95% growth inhibition
[16] = fluorescence assay with CCF2-FA substrate
[17] = fluorescence assay with CCF2-FA substrate, read-out: IMP-1 IC50
[18] = fluorescence assay with CCF2-FA substrate, read-out: VIM-1 IC50
[19] = CLB30016 (NDM-1), 95% inhibition of bacterial growth
[20] = IHMA599644 (VIM-1), 95% inhibition of bacterial growth
[21] = CL5741 (IMP-1), 95% inhibition of bacterial growth
[22] = VIM-1 IC50, VIM-1 enzyme, CCF2-FA substrate

Chain of NDM-1 (C7C422 whole entry, looked up, species assumed): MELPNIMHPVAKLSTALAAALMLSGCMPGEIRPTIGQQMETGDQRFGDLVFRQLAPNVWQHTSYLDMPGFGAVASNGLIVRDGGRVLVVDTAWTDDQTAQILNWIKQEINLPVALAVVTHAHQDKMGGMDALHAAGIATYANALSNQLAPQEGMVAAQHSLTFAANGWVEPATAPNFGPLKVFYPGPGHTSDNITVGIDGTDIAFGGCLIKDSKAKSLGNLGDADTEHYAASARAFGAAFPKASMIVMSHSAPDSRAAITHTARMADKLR
Chain of IMP-1 (P52699 whole entry, looked up): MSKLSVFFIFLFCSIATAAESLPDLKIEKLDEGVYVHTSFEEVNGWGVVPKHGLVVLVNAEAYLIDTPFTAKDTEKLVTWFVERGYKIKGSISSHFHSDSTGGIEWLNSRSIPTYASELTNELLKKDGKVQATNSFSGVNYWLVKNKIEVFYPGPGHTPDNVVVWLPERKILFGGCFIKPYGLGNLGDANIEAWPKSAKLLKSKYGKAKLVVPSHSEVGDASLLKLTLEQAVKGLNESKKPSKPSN

Row | Structure (SMILES) | IC50 (NDM-1; [4]) [nM] | IC50 (IMP-1; [5]) [nM] | Escherichia coli MITC95 [1, 7] [µM] | Klebsiella pneumoniae MITC95 [2, 8] [µM] | Serratia marcescens MITC95 [3, 9] [µM] | IC50 (NDM-1; [10]) [nM] | IC50 (IMP-1; [11]) [nM] | IC50 (VIM-1; [12]) [nM] | Escherichia coli MITC95 [1, 13] [µM] | Klebsiella pneumoniae MITC95 [2, 14] [µM] | Serratia marcescens MITC95 [3, 15] [µM] | IC50 (NDM-1; [16]) [nM] | IC50 (IMP-1; [17]) [nM] | other results
1 | NS(=O)(=O)c1c(C(F)(F)F)ccc(C2CCCCC2)c1-c1nnn[nH]1 [Example 491, 3-cyclohexyl-2-(1H-tetrazol-5-yl)-6-(trifluoromethyl)benzenesulfonamide] | 0.435 | 1.11 | 0.6406 | 3.792 | 0.0625 | – | – | – | – | – | – | – | – | IC50 (VIM-1; [6]): 0.505 nM
2 | NCCCCNc1nc2c(-c3cccc(S(N)(=O)=O)c3-c3nnn[nH]3)cccc2s1 [Example 642, 3-[2-(4-aminobutylamino)-1,3-benzothiazol-4-yl]-2-(1H-tetrazol-5-yl)benzenesulfonamide] | 1.01 | 51.9 | 1.563 | 50 | 25 | – | – | – | – | – | – | – | – | IC50 (VIM-1; [6]): 9 nM
3 | NS(=O)(=O)c1c(CC[C@H]2CC[C@H](N)CC2)ccc(-c2ccc(C3CCNCC3)cc2)c1-c1nn[nH]n1 [Example 461, 4-(2-((1r,4s)-4-aminocyclohexyl)ethyl)-4′-(piperidin-4-yl)-2-(2H-tetrazol-5-yl)-[1,1′-biphenyl]-3-sulfonamide] | – | – | – | – | – | 1.92 | 4.07 | 1.67 | 1.563 | 4.688 | 1.563 | – | – | –
4 | NS(=O)(=O)c1c(C(F)(F)F)ccc(N2CC[C@H](CO)[C@H](F)C2)c1-c1nnn[nH]1 [Example 663, 3-[(3S,4R)-3-fluoro-4-(hydroxymethyl)piperidin-1-yl]-2-(1H-tetrazol-5-yl)-6-(trifluoromethyl)benzenesulfonamide] | 2.46 | 2.94 | 0.8906 | 3.125 | 0.125 | – | – | – | – | – | – | – | – | IC50 (VIM-1; [6]): 0.79 nM
5 | NS(=O)(=O)c1cccc(C2CCCC2)c1-c1nnn[nH]1 [Example 160, 3-cyclopentyl-2-(1H-tetrazol-5-yl)benzenesulfonamide] | – | – | – | – | – | – | – | – | – | – | – | 9 | 251 | IC50 (VIM-1; [18]): 280 nM; Escherichia coli expressing NDM-1 (CLB 30016) MITC95 [1]: 0.7813 µM; Klebsiella pneumoniae expressing VIM-1 (IHMA 599644) MITC95 [2]: 75 µM; Serratia marcescens expressing IMP-1 (CL5741) MITC95 [3]: 9.375 µM
6 | NC[C@H]1CC[C@@H](c2ccc(C(F)(F)F)c(S(N)(=O)=O)c2-c2nnn[nH]2)CC1 [Example 500, 3-(cis 4-(Aminomethyl)cyclohexyl)-2-(1H-tetrazol-5-yl)-6-(trifluoromethyl)benzenesulfonamide] | 3.52 | – | 2.344 | 31.25 | 1.563 | – | – | – | – | – | – | – | – | IC50 (IMP-1): 9.86 nM; IC50 (VIM-1; [6]): 12.2 nM
7 | NS(=O)(=O)c1c(Cc2ccccc2)ccc(-c2ccc(C3CCNCC3)cc2)c1-c1nnn[nH]1 [Example 261] | – | – | – | – | – | 6.59 | 1.72 | 10.2 | 6.25 | 100 | 1.563 | – | – | –
8 | NS(=O)(=O)c1c(C(F)(F)F)ccc(-c2ccc(C3CN(C4CC5(CCNCC5)C4)C3)cc2)c1-c1nnn[nH]1 [Example 805, 4′-[1-(7-azaspiro[3.5]non-2-yl)azetidin-3-yl]-2-(1H-tetrazol-5-yl)-4-(trifluoromethyl)biphenyl-3-sulfonamide] | – | – | – | – | – | – | – | – | – | – | – | 3.77 | 7.58 | IC50 (VIM-1; [18]): 19.7 nM; Escherichia coli MITC95 [1, 19]: 3.125 µM; Klebsiella pneumoniae MITC95 [2, 20]: 50 µM; Serratia marcescens MITC95 [3, 21]: 6.25 µM
9 | NS(=O)(=O)c1c(C(F)(F)F)ccc(N2CCC(C3CCNCC3)CC2)c1-c1nnn[nH]1 [Example 779, 3-[4-(4-piperidyl)-1-piperidyl]-2-(1H-tetrazol-5-yl)-6-(trifluoromethyl) benzenesulfonamide] | – | – | – | – | – | – | – | – | – | – | – | 6.42 | 6.7 | IC50 (VIM-1; [18]): 0.11 nM; Escherichia coli MITC95 [1, 19]: 1.172 µM; Klebsiella pneumoniae MITC95 [2, 20]: 2.344 µM; Serratia marcescens MITC95 [3, 21]: 0.3906 µM
10 | N=C(N)N1CCC(c2ccc(-c3cccc(S(N)(=O)=O)c3-c3nn[nH]n3)cc2)CC1 [Example 32, 4-(3′-Sulfamoyl-2′-(2H-tetrazol-5-yl)-[1,1′-biphenyl]-4-yl)piperidine-1-carboximidamide] | – | – | – | – | – | – | – | – | – | – | – | 3.46 | 18 | IC50 (VIM-1; [18]): 77.8 nM; Escherichia coli expressing NDM-1 (CLB 30016) MITC95 [1]: 0.5859 µM; Klebsiella pneumoniae expressing VIM-1 (IHMA 599644) MITC95 [2]: 25 µM; Serratia marcescens expressing IMP-1 (CL5741) MITC95 [3]: 0.7813 µM
11 | C[C@@H](O)[C@H](NCc1ccc(-c2cccc(S(N)(=O)=O)c2-c2nnn[nH]2)cc1)C(=O)O [Example 357, N-{[3′-sulfamoyl-2′-(1H-tetrazol-5-yl)biphenyl-4-yl]methyl}-L-threonine] | – | – | – | – | – | 12.5 | 182 | 287 | 3.125 | 25 | 4.688 | – | – | –
12 | NS(=O)(=O)c1nccc(N2CCC(O)CC2)c1-c1nnn[nH]1 [Example 242, 4-(4-hydroxypiperidin-1-yl)-3-(1H-tetrazol-5-yl)pyridine-2-sulfonamide] | – | – | – | – | – | 103 | 1120 | 270 | 0.3906 | 6.25 | 25 | – | – | –
13 | NS(=O)(=O)c1c(C(F)(F)F)ccc(N2CCC(C3CCNCC3)C2)c1-c1nnn[nH]1 (stereo not drawn) [Example 774, 3-(3-piperidin-4-ylpyrrolidin-1-yl)-2-(1H-tetrazol-5-yl)-6-(trifluoromethyl) benzenesulfonamide] | – | – | – | – | – | – | – | – | – | – | – | 62.6 | 29.1 | IC50 (VIM-1; VIM-1 IC50, fluorescence assay with CCF2-FA substrate): 1.35 nM; Escherichia coli MITC95 [1, 19]: 25 µM; Klebsiella pneumoniae MITC95 [2, 20]: 6.25 µM; Serratia marcescens MITC95 [3, 21]: 25 µM
14 | NC1(c2ccc(-c3ccc(C(F)(F)F)c(S(N)(=O)=O)c3-c3nnn[nH]3)cc2)CC(O)C1 (stereo not drawn) [Example 728, 4′-(1-amino-3-hydroxycyclobutyl)-2-(1H-tetrazol-5-yl)-4-(trifluoromethyl)biphenyl-3-sulfonamide] | 2.58 | 4.16 | 3.125 | 25 | 6.25 | – | – | – | – | – | – | – | – | IC50 (VIM-1; [22]): 4 nM
15 | NCC[C@H]1CC[C@@H](c2ccc(C(F)(F)F)c(S(N)(=O)=O)c2-c2nnn[nH]2)CC1 [Example 498, 3-(cis 4-(2-aminoethyl)cyclohexyl)-2-(1H-tetrazol-5-yl)-6-(trifluoromethyl)benzenesulfonamide] | 2.15 | 5.5 | 0.3906 | 4.688 | 0.1953 | – | – | – | – | – | – | – | – | IC50 (VIM-1; [22]): 6.37 nM
16 | Nc1cccn2c(-c3cccc(S(N)(=O)=O)c3-c3nnn[nH]3)cnc12 [Example 418, 3-(8-aminoimidazo[1,2-a]pyridin-3-yl)-2-(1H-tetrazol-5-yl)benzenesulfonamide] | – | – | – | – | – | 1.18 | 118 | 13 | 0.3906 | 6.25 | 6.25 | – | – | –
17 | NS(=O)(=O)c1cccc(-c2snc3cccnc23)c1-c1nnn[nH]1 [Example 414, 3-isothiazolo[4,3-b]pyridin-3-yl-2-(1H-tetrazol-5-yl)benzenesulfonamide] | – | – | – | – | – | 6.01 | 177 | 19.9 | 2.344 | 18.75 | 4.688 | – | – | –
18 | NCCC1CCC(N[C@H]2CC[C@H](c3ccc(C(F)(F)F)c(S(N)(=O)=O)c3-c3nnn[nH]3)CC2)CC1 (stereo partly drawn) [Example 705, 3-(4-{[4-(2-aminoethyl)cyclohexyl]a-mino}cyclohexyl)-2-(1H-tetrazol-5-yl)-6-(trifluoromethyl)benzene sulfonamide] | 18.2 | 61.1 | 2.344 | 12.5 | 4.688 | – | – | – | – | – | – | – | – | IC50 (VIM-1; [6]): 5.7 nM
19 | NS(=O)(=O)c1cccc(C2CCC2)c1-c1nnn[nH]1 [Example 149, 3-cyclobutyl-2-(1H-tetrazol-5-yl)benzenesulfonamide] | – | – | – | – | – | – | – | – | – | – | – | 23.7 | 493 | IC50 (VIM-1; [18]): 861 nM; Escherichia coli expressing NDM-1 (CLB 30016) MITC95 [1]: 1.563 µM; Klebsiella pneumoniae expressing VIM-1 (IHMA 599644) MITC95 [2]: 150 µM; Serratia marcescens expressing IMP-1 (CL5741) MITC95 [3]: 6.25 µM

From patent publication US9708336B2, “Metallo-beta-lactamase inhibitors” (priority 2014, dated 2017)
